Results reported in PubChem BioAssay AID328 (DTP/NCI, 2004).
Several values for one entry are separate records, joined by “and”; a condition that tells them apart may be missing. Equal entries are not always repeated. Inconclusive results and toxic doses are left out. Rule for the calls: active = survival T/C of 150% or more; inactive = T/C below 125% in these data.

Test system: BDF1 mice, P388 leukemia ip, median survival T/C
Experiment: NCI In Vivo Anticancer Drug Screen. Data for tumor model P388 Leukemia (intraperitoneal) in B6D2F1 (BDF1) mice
Conditions: endpoint: median survival time, higher = longer survival
How it was run: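 Vehicle-dosed animals serve as the reference; survival of compound-dosed, tumour-implanted mice is divided by it.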

[1] = dose: 100.0 mg/kg/injection, schedule: Q01DX009 (ip), vehicle: saline with Tween-80
[2] = dose: 200.0 mg/kg/injection, schedule: Q01DX009 (ip), vehicle: saline with Tween-80
[3] = dose: 50.0 mg/kg/injection, schedule: Q01DX009 (ip), vehicle: saline with Tween-80
[4] = dose: 100.0 mg/kg/injection, schedule: Q04DX003 (ip), vehicle: Klucel (hydroxypropylcellulose) (HPC)
[5] = dose: 25.0 mg/kg/injection, schedule: Q04DX003 (ip), vehicle: saline
[6] = dose: 50.0 mg/kg/injection, schedule: Q04DX003 (ip), vehicle: saline
[7] = dose: 100.0 mg/kg/injection, schedule: Q04DX003 (ip), vehicle: saline
[8] = dose: 3.12 mg/kg/injection, schedule: Q01DX009 (ip), vehicle: Klucel (hydroxypropylcellulose) (HPC)
[9] = dose: 6.25 mg/kg/injection, schedule: Q01DX009 (ip), vehicle: Klucel (hydroxypropylcellulose) (HPC)
[10] = dose: 100.0 mg/kg/injection, schedule: Q04DX003 (ip), vehicle: saline with Tween-80
[11] = dose: 200.0 mg/kg/injection, schedule: Q04DX003 (ip), vehicle: saline with Tween-80
[12] = dose: 400.0 mg/kg/injection, schedule: Q04DX003 (ip), vehicle: saline with Tween-80
[13] = dose: 25.0 mg/kg/injection, schedule: Q01DX009 (ip), vehicle: saline with Tween-80
[14] = dose: 50.0 mg/kg/injection, schedule: Q04DX003 (ip), vehicle: saline with Tween-80
[15] = dose: 12.5 mg/kg/injection, schedule: Q01DX009 (ip), vehicle: saline with Tween-80

Measured: T/C

CCOC(=O)c1c[nH]n2c(=S)ncnc12
inactive: [1] 100 % of control and 109 % of control | [2] 110 % of control | dose: 400.0 mg/kg/injection, schedule: Q01DX009 (ip), vehicle: saline with Tween-80 104 % of control

COc1ccc(Cl)cc1NC(=O)Nc1c(C)n(C)n(-c2ccccc2)c1=O
inactive: dose: 100.0 mg/kg/injection, schedule: Q01DX001 (ip), vehicle: Klucel (hydroxypropylcellulose) (HPC) 100 % of control | dose: 200.0 mg/kg/injection, schedule: Q01DX001 (ip), vehicle: Klucel (hydroxypropylcellulose) (HPC) 100 % of control | dose: 400.0 mg/kg/injection, schedule: Q01DX001 (ip), vehicle: Klucel (hydroxypropylcellulose) (HPC) 95 % of control

O=C(NC(=O)OCCCCCl)Nc1cccc(Cl)c1
inactive: [3] 100 % of control | [1] 98 % of control | [2] 88 % of control

COc1ccc2[nH]ccc(=O)c2c1
inactive: [3] 102 % of control | [1] 96 % of control | [2] 105 % of control

Cc1ccc(S(=O)(=O)NC(=O)NNC(=O)C(F)(F)F)cc1
inactive: [3] 114 % of control | [1] 96 % of control | [2] 109 % of control

CC1(C)OC(COCCOCCOCCCO)C(COCCOCCOCCCO)O1 (configuration not stated)
inactive: dose: 100.0 mg/kg/injection, schedule: Q01DX001 (ip), vehicle: saline 112 % of control | dose: 100.0 mg/kg/injection, schedule: Q01DX001 (ip), vehicle: suspension in saline 100 % of control | dose: 200.0 mg/kg/injection, schedule: Q01DX001 (ip), vehicle: saline 111 % of control | dose: 200.0 mg/kg/injection, schedule: Q01DX001 (ip), vehicle: suspension in saline 98 % of control | dose: 400.0 mg/kg/injection, schedule: Q01DX001 (ip), vehicle: suspension in saline 120 % of control | dose: 800.0 mg/kg/injection, schedule: Q01DX001 (ip), vehicle: suspension in saline 100 % of control

O=C1c2ccccc2C(=O)N1c1ccc(S(=O)(=O)c2ccc(N3C(=O)c4ccccc4C3=O)cc2)cc1
inactive: dose: 87.5 mg/kg/injection, schedule: Q01DX009 (ip), vehicle: saline with Tween-80 104 % of control | dose: 175.0 mg/kg/injection, schedule: Q01DX009 (ip), vehicle: saline with Tween-80 100 % of control | dose: 350.0 mg/kg/injection, schedule: Q01DX009 (ip), vehicle: saline with Tween-80 98 % of control

C=C1C(=O)O[C@H]2C/C(C)=C/CC/C(CO)=C/[C@@H](O)[C@H]12
inactive: dose: 5.5 mg/kg/injection, schedule: Q01DX009 (ip), vehicle: alcohol 110 % of control | dose: 33.0 mg/kg/injection, schedule: Q01DX009 (ip), vehicle: alcohol 120 % of control | dose: 50.0 mg/kg/injection, schedule: Q01DX009 (ip), vehicle: alcohol 95 % of control

CC(O)C(c1ccccc1)S(C)(=O)=O (configuration not stated)
inactive: [4] 95 % of control | dose: 200.0 mg/kg/injection, schedule: Q04DX003 (ip), vehicle: Klucel (hydroxypropylcellulose) (HPC) 104 % of control | dose: 400.0 mg/kg/injection, schedule: Q04DX003 (ip), vehicle: Klucel (hydroxypropylcellulose) (HPC) 91 % of control

NNC(=O)NO
inactive: [5] 95 % of control | [6] 104 % of control | [7] 100 % of control

CC[CH2][Pb]([CH2]CC)([CH2]CC)[N]1C(=O)c2ccccc2C1=O
inactive: [8] 108 % of control and 123 % of control | [9] 110 % of control and 123 % of control | dose: 12.5 mg/kg/injection, schedule: Q01DX009 (ip), vehicle: Klucel (hydroxypropylcellulose) (HPC) 123 % of control

CCCC1(C)NC(=O)NC1=O (configuration not stated)
inactive: [10] 104 % of control | [11] 113 % of control | [12] 90 % of control

C(=C/c1ccnc2ccccc12)/c1cccs1
inactive: [13] 102 % of control | [3] 110 % of control | [1] 111 % of control | [2] 119 % of control

CCOC(=O)C(=CN(C(C)C)C(C)C)C(=O)OCC
inactive: [14] 109 % of control | [10] 104 % of control | [11] 109 % of control

BrCc1cc2ccccc2cc1CBr
inactive: [5] 116 % of control

CCOC(=O)C(N)C[S][Sn]([CH3])([CH3])[Cl] (configuration not stated)
inactive: dose: 6.25 mg/kg/injection, schedule: Q01DX009 (ip), vehicle: saline 122 % of control | dose: 12.5 mg/kg/injection, schedule: Q01DX009 (ip), vehicle: saline 124 % of control

CCCCCCCCCCCCCCCC(=O)N(CCCN)C(C)CCCN(CC)CC (configuration not stated)
inactive: [15] 106 % of control | [13] 99 % of control | [14] 107 % of control | [10] 93 % of control

CC(=O)CC(C)(C)c1ccccc1
inactive: dose: 25.0 mg/kg/injection, schedule: Q01DX009 (ip), vehicle: saline 118 % of control | dose: 50.0 mg/kg/injection, schedule: Q01DX009 (ip), vehicle: saline 111 % of control | [6] 105 % of control | [7] 105 % of control | dose: 200.0 mg/kg/injection, schedule: Q01DX009 (ip), vehicle: saline 93 % of control | dose: 200.0 mg/kg/injection, schedule: Q04DX003 (ip), vehicle: saline 121 % of control | dose: 400.0 mg/kg/injection, schedule: Q04DX003 (ip), vehicle: saline 102 % of control

O=C1c2ccccc2C(=O)c2c(Cl)cccc21
inactive: [15] 113 % of control | [13] 100 % of control | [3] 100 % of control | [10] 95 % of control | [11] 100 % of control | [12] 95 % of control

CCOC(=O)c1cnc2ccc3ccccc3n2c1=O
inactive: dose: 50.0 mg/kg/injection, schedule: Q04DX002 (ip), vehicle: saline with Tween-80 101 % of control | dose: 100.0 mg/kg/injection, schedule: Q04DX002 (ip), vehicle: saline with Tween-80 101 % of control | dose: 200.0 mg/kg/injection, schedule: Q04DX002 (ip), vehicle: saline with Tween-80 93 % of control

CCCCNCCC(SSSC(CCNCCCC)c1ccc(Cl)cc1)c1ccc(Cl)cc1 (configuration not stated)
inactive: dose: 6.25 mg/kg/injection, schedule: Q04DX003 (ip), vehicle: saline with Tween-80 104 % of control | dose: 12.5 mg/kg/injection, schedule: Q04DX003 (ip), vehicle: saline with Tween-80 100 % of control | dose: 25.0 mg/kg/injection, schedule: Q04DX003 (ip), vehicle: saline with Tween-80 109 % of control

COC(=O)/C=C/c1c[nH]c2nccnc12
inactive: dose: 25.0 mg/kg/injection, schedule: Q01DX009 (ip), vehicle: water 104 % of control | dose: 50.0 mg/kg/injection, schedule: Q01DX009 (ip), vehicle: water 90 % of control and 112 % of control | dose: 100.0 mg/kg/injection, schedule: Q01DX009 (ip), vehicle: water 97 % of control and 109 % of control | dose: 100.0 mg/kg/injection, schedule: Q04DX003 (ip), vehicle: water 86 % of control | dose: 200.0 mg/kg/injection, schedule: Q01DX009 (ip), vehicle: water 115 % of control | dose: 200.0 mg/kg/injection, schedule: Q04DX003 (ip), vehicle: water 102 % of control | dose: 300.0 mg/kg/injection, schedule: Q01DX009 (ip), vehicle: water 106 % of control | dose: 400.0 mg/kg/injection, schedule: Q01DX009 (ip), vehicle: water 93 % of control | dose: 400.0 mg/kg/injection, schedule: Q04DX003 (ip), vehicle: water 102 % of control

CCn1nnc2c(N(C)C)nc(N)nc21
inactive: dose: 25.0 mg/kg/injection, schedule: Q01DX009 (ip), vehicle: Klucel (hydroxypropylcellulose) (HPC) 92 % of control | dose: 50.0 mg/kg/injection, schedule: Q01DX009 (ip), vehicle: Klucel (hydroxypropylcellulose) (HPC) 92 % of control | dose: 50.0 mg/kg/injection, schedule: Q04DX003 (ip), vehicle: Klucel (hydroxypropylcellulose) (HPC) 100 % of control | dose: 100.0 mg/kg/injection, schedule: Q01DX009 (ip), vehicle: Klucel (hydroxypropylcellulose) (HPC) 92 % of control | [4] 104 % of control

CCOC(=O)CN1C(=O)C(Cl)=C(Cl)C1=O
inactive: [8] 95 % of control | [9] 95 % of control | dose: 9.2 mg/kg/injection, schedule: Q04DX003 (ip), vehicle: Klucel (hydroxypropylcellulose) (HPC) 100 % of control | dose: 14.0 mg/kg/injection, schedule: Q04DX003 (ip), vehicle: Klucel (hydroxypropylcellulose) (HPC) 91 % of control | dose: 21.0 mg/kg/injection, schedule: Q04DX003 (ip), vehicle: Klucel (hydroxypropylcellulose) (HPC) 91 % of control | dose: 29.0 mg/kg/injection, schedule: Q04DX003 (ip), vehicle: Klucel (hydroxypropylcellulose) (HPC) 100 % of control
